{
  "source": "patent US20090192209A1",
  "about": "“Extended treatment of tumors through vessel occlusion with light activated drugs” (Light Sciences Oncology, Inc., priority 2004, published 2009)",
  "key": {"[1]": {"test_system": "R1 rhabdomyosarcoma tumor fragment implanted in liver", "assay": "PDT with single implanted LED light source proximal to tumor-feeding vessel in rat liver tumor model", "format": "in vivo, WAG/Rij rats", "method": "A study was carried out to explore whether placement of a single light source in proximity to an identified tumor-feeding vessel could result in effective treatment of larger volumes of the organ in which there was neoplasia than might be achieved using direct PDT on tumor tissue itself.\nMethods. The liver of each of 20 WAG/Rij rats was implanted with a R1 rhabdomyosarcoma tumor fragment. […] A 10×1.5 mm LED light source was implanted in the liver proximal to an upstream feeding vessel. LEDs were placed at a distance ≧5 mm from the tumor to ensure that the tumor itself was outside the direct illumination effect of the PDT. After a 10-minute drug-light interval, a light dose totaling 200 J/cm was administered. Animals were sacrificed at various time points, up to 10 days post treatment, and the extent and the mechanism of cell death was evaluated histologically using TUNEL [TdT-mediated dUTP-X nick end labeling] and EM [Electron Microscopy]."}, "[2]": {"test_system": "targeted tumors, including liver metastases arising from various primaries", "details": "clinical tests, PDT; Cancer 2003; 98:1767-71; cited from earlier work"}},
  "data": [
    {"smiles": "C=Cc1c(C)c2cc3nc(c(CC(=O)N[C@@H](CC(=O)O)C(=O)O)c4[nH]c(cc5nc(cc1[nH]2)C(C)=C5CC)c(C)c4C(=O)O)[C@@H](CCC(=O)O)[C@@H]3C", "note": "[Talaporfin Sodium]", "values": [
      {"measurement": "cell death in tumors implanted downstream from the targeted vessel (TUNEL, EM)", "setting": "[1]; 5 mg/kg i.v. tail vein, 10-minute drug-light interval, 200 J/cm, LED ≧5 mm from tumor", "value": "cell death was consistently induced by a predominantly apoptotic mechanism"},
      {"measurement": "cell death in tumors similarly close to light source but vascularized by vessels other than the one targeted", "setting": "[1]; 5 mg/kg i.v., 200 J/cm", "value": "no cell death was observed"},
      {"measurement": "time cell death first observed after PDT (TUNEL)", "setting": "[1]; 5 mg/kg i.v., 200 J/cm, tumors downstream from targeted vessel", "value": 2, "unit": "days"},
      {"measurement": "closure of larger blood vessels / extended PDT effect", "setting": "[1]; dosed at 2 mg/kg or less", "value": "not sufficient to close larger blood vessels"},
      {"measurement": "extent of PDT treatment effect", "setting": "[1]; dosed at 2 mg/kg or less", "value": "restricted to the immediate vicinity of the illumination"},
      {"measurement": "objective response rates in targeted tumors", "setting": "[2]", "value": "33-50%"}
    ]}
  ]
}
